Reference: patent US7238689B2, “Isoxazoline derivative and herbicide comprising the same as active ingredient” (Ihara Chemical Industry Co., Ltd., priority 2001, dated 2007)

Key:
Type in all cases: in vivo
Set-up in all cases: scale not given here
[1] = test system: Monochoria vaginalis (Murm. f.) Presl var. plantaginea (Roxb.) Solms-Laub.; assay: Herbicidal effect by paddy field soil treatment; conditions: wettable powder, active ingredient 1000 g/ha, examined at the 21st day from the treatment
Method: (§1) A paddy field soil was filled in a plastic pot of 100 cm^2 and subjected to puddling. Then, seeds of Echinochloa oryzicola Vasing and Monochoria vaginalis (Murm. f.) Presl var. plantaginea (Roxb.) Solms-Laub. were sowed and water was filled in a depth of 3 cm. Next day, wettable powders produced in accordance with the Formulation 1 were diluted with water and dropped on the water surface. The application amount of each wettable powder was 1,000 g per 1 hectare in terms of the active ingredient. Then, breeding was made in a greenhouse, and the herbicidal effect of each wettable powder was examined at the 21st day from the treatment in accordance with the standard shown in Table 21.

[2] = test system: Echinochloa oryzicola Vasing; assay: Herbicidal effect by paddy field soil treatment; conditions: wettable powder, active ingredient 1000 g/ha, examined at the 21st day from the treatment
Method: as §1

[3] = test system: Echinochloa crus-galli (L.) Beauv. var. crusgalli; assay: Herbicidal effect by upland field soil treatment; conditions: active ingredient 1000 g/ha, examined at 21st day from treatment
From the text: (§2) An upland field soil was filled in a plastic pot of 80 cm^2. Seeds of Echinochloa crus-galli (L.) Beauv. var. crusgalli and Setaria viridis (L.) Beauv. were sowed, followed by covering with the same soil. […] Then, breeding was made in a greenhouse, and the herbicidal effect of each wettable powder was examined at the 21st day from the treatment in accordance with the standard shown in Table 21.

[4] = test system: Setaria viridis (L.) Beauv.; assay: Herbicidal effect by upland field soil treatment; conditions: active ingredient 1000 g/ha, examined at 21st day from treatment
From the text: as §2

Structure (SMILES) | Herbicidal effect index, Monochoria vaginalis (Burm. F.) Presl var. plantaginea (Roxb.) Solms-Laub. [1] | Herbicidal effect index, Echinochloa oryzicola Vasing [2] | herbicidal effect (index per standard of Table 21), Echinochloa curs-galli (L.) Beauv. Var. crus-galli [3] | herbicidal effect (index per standard of Table 21), Setaria viridis (L.) Beauv. [4]
CC1(C)CC(S(=O)(=O)Cc2c(C(F)(F)F)nn(C3CCCC3)c2Cl)=NO1 [3-0089] | 5 | 5 | – | –
CC1(C)CC(S(=O)(=O)Cc2c(C(F)(F)F)nn(CC3CCCCC3)c2Cl)=NO1 [3-0102] | 5 | 5 | – | –
COc1c(CS(=O)(=O)C2=NOC(C)(C)C2)c(-c2ccccc2)cc[n+]1[O-] [7-0007] | – | – | 5 | 4
C#CCOc1c(CS(=O)(=O)C2=NOC(C)(C)C2)c(C(F)(F)F)nn1C [3-0053] | – | – | 5 | 5
Cn1nc(C(F)(F)F)c(CS(=O)(=O)C2=NOC(C)(C)C2)c1OCC1CCCC1 [3-0051] | 5 | 5 | – | –
CC(=O)n1nc(C(F)(F)F)c(CS(=O)(=O)C2=NOC(C)(C)C2)c1Cl [3-0177] | 5 | 5 | – | –
CC(=O)Cn1nc(C(F)(F)F)c(CS(=O)(=O)C2=NOC(C)(C)C2)c1Cl [3-0142] | – | – | 5 | 5
Cn1nc(C(F)(F)F)c(CS(=O)(=O)C2=NOC(C)(C)C2)c1Oc1cccc(Cl)c1 [3-0061] | 5 | 5 | – | –
CC1(C)CC(S(=O)(=O)Cc2c(C(F)(F)F)nn(S(=O)(=O)c3ccccc3)c2Cl)=NO1 [3-0176] | 5 | 5 | – | –
COc1nc(OC)c(CS(=O)(=O)C2=NOC(C)(C)C2)c(C(F)(F)F)n1 [8-0007] | – | – | 5 | 5
CC1(C)CC(S(=O)(=O)Cc2nn(C(F)F)c3c2CCCC3)=NO1 [6-0001] | – | – | 5 | 5
CC1(C)CC(S(=O)(=O)Cc2sc3ccccc3c2Br)=NO1 [10-0011] | 5 | 5 | – | –
CC1(C)CC(S(=O)(=O)Cc2c[n+]([O-])ccc2C(F)(F)F)=NO1 [7-0002, 5,5-dimethyl-3-(4-trifluoromethyl-pyridine-N-oxide-3-ylmethylsulfonyl)-2-isoxazoline] | – | – | 5 | 5
Cc1sc(C)c(CS(=O)(=O)C2=NOC(C)(C)C2)c1C [2-0007] | – | – | 4 | 4
CC(C)C(SC1=NOC(C)(C)C1)c1cncnc1C(F)(F)F (racemic) [8-0012] | 5 | 5 | – | –
CC1(C)CC(S(=O)(=O)Cc2c(Cl)nn(CC3CCCCC3)c2C(F)(F)F)=NO1 [3-0103] | 5 | 5 | – | –
CC1(C)CC(S(=O)(=O)Cc2cc3ccccc3s2)=NO1 [10-0002] | 4 | 5 | – | –
CCOc1onc(C(F)(F)F)c1CS(=O)(=O)C1=NOC(C)(C)C1 [4-0006] | – | – | 5 | 5
CC1(C)CC(S(=O)(=O)Cc2nc(Cc3ccccc3)no2)=NO1 [9-0007] | – | – | 4 | 4

Structure (SMILES) | Herbicidal effect index, Monochoria vaginalis (Burm. F.) Presl var. plantaginea (Roxb.) Solms-Laub. [1] | Herbicidal effect index, Echinochloa oryzicola Vasing [2] | herbicidal effect (index per standard of Table 21), Echinochloa curs-galli (L.) Beauv. Var. crus-galli [3] | herbicidal effect (index per standard of Table 21), Setaria viridis (L.) Beauv. [4]
CC(=O)Cn1nc(Cl)c(CS(=O)(=O)C2=NOC(C)(C)C2)c1C(F)(F)F [3-0143] | – | – | 5 | 5
COc1ncnc(OC)c1CS(=O)(=O)C1=NOC(C)(C)C1 [8-0005] | – | – | 5 | 4
CC1(C)CC(S(=O)(=O)Cc2c(Cl)nn(C3CCCC3)c2C(F)(F)F)=NO1 [3-0090] | 5 | 5 | – | –
CC1(C)CC(S(=O)(=O)Cc2c(Cl)nn(CC3CCCC3)c2C(F)(F)F)=NO1 [3-0101] | 5 | 5 | – | –
CCCCOc1c(CS(=O)(=O)C2=NOC(C)(C)C2)c(C(F)(F)F)nn1C [3-0048] | – | – | 5 | 5
Cn1nc(C(F)F)c(CSC2=NOC(C)(C)C2)c1Cl [3-0020, 3-(5-chloro-3-difluoromethyl-1-methyl-1H-pyrazol-4-ylmethylthio)-5,5-dimethyl-2-isoxazoline] | – | – | 5 | 5
CC1(C)CC(S(=O)(=O)Cc2c(C(F)(F)F)nn(CC(N)=O)c2Cl)=NO1 [3-0138] | – | – | 4 | 5
CCOC(=O)Cn1nc(C(F)(F)F)c(CS(=O)(=O)C2=NOC(C)(C)C2)c1Cl [3-0136] | – | – | 5 | 5
Cn1nc(C(F)(F)F)c(CS(=O)(=O)C2=NOC(C)(C)C2)c1Oc1ccc(Cl)cc1 [3-0063] | – | – | 5 | 5
CC1(C)CC(S(=O)(=O)Cc2ccncc2)=NO1 [9-0003] | 5 | 5 | – | –
CC1(C)CC(S(=O)(=O)Cc2csc3ccc(Cl)cc23)=NO1 [10-0008] | 5 | 5 | – | –
CC1(C)CC(S(=O)(=O)Cc2c(C(F)(F)F)nn(C(=O)c3ccccc3)c2Cl)=NO1 [3-0178] | 5 | 5 | – | –
Cn1nc(C(F)(F)F)c(CS(=O)(=O)C2=NOC(C)(C)C2)c1OCC(F)F [3-0056] | – | – | 5 | 5
CC1(C)CC(S(=O)(=O)Cc2c(C(F)(F)F)nn(-c3ccccc3)c2OC(F)F)=NO1 [3-0160] | 5 | 5 | – | –
CC1(C)CC(S(=O)(=O)Cc2ccco2)=NO1 [1-0006] | – | – | 5 | 4
Cc1onc(C(F)(F)F)c1CS(=O)(=O)C1=NOC(C)(C)C1 [4-0001, 5,5-dimethyl-3-(5-methyl-3-trifluoromethylisoxazol-4-ylmehtylsulfonyl)-2-isoxazoline] | 5 | 5 | – | –
Cn1nc(C(F)(F)F)c(CS(=O)(=O)C2=NOC(C)(C)C2)c1OCC1CC1 [3-0050] | – | – | 5 | 5
CCOc1ncnc(C(F)(F)F)c1CS(=O)(=O)C1=NOC(C)(C)C1 [8-0004] | – | – | 5 | 5
COc1nn(C)c(C(F)(F)F)c1CS(=O)(=O)C1=NOC(C)(C)C1 [3-0043] | – | – | 5 | 5
